Measurements reported in US4749710A, “Immunosuppressive agents” (priority 1985, dated 1988).
Read-outs that look alike come from different tables or passages of the source.

Assays:
Type in all cases: cell-based
[1] = tested on: human cytotoxic T-lymphocyte responses; assay: Inhibition of human CTL responses (mixed leukocyte-tumor cultures, HT-144 melanoma, ^51 Cr release); conditions: donor I, 0.01% ethanol, effector to target 6:1
Experimental: Human cells for the tests described below were taken from four donors designated I, II, III, and IV in the tables below.
Stock solutions of Vitamin D derivatives were prepared as they were prepared above in the murine tests.
Human cytotoxic T-lymphocytes were generated in mixed leukocyte-tumor cultures by known methods. Specifically, blood from normal volunteer donors was drawn into heparinized syringes, diluted 1:1 with calcium-magnesium free Hanks' balanced salt solution (Ca-Mg free HBSS), and layered over lymphocyte separation medium (Litton Bionetics, Kensington, MD). After centrifugation at 500xg for 20-30 min at room temperature, peripheral blood mononuclear cells were harvested from the interface. The peripheral blood mononuclear leukocytes were centrifuged and resuspended in Ca-Mg free HBSS and were subsequently separated from platelets by centrifugation at 500xg through a solution of 20% sucrose and 1% human AB serum in Ca-Mg free HBSS. The cells were washed once and finally resuspended in tissue culture medium. […] Cells to be used as stimulator cells in mixed leukocyte-tumor cultures were irradiated with 10,000 rads of gamma irradiation to preclude proliferation in culture. Mixed leukocyte-tumor cell cultures were established in 16 mm tissue culture wells at a final volume of 1.5 ml per well containing 2×10^6 peripheral blood mononuclear leukocytes and 5×10^4 irradiation-inactivated stimulator cells. In order to prevent the generation of nonspecific cytotoxic cells in these cultures, hydrocortisone sodium succinate was added to each culture at a final concentration of 1×10^-5 M. Mixed leukocyte-tumor cultures were incubated for 6 days in a humidified atmosphere of 5% CO2 in air.
Labelled target cells were washed free of unbound isotope by 3 serial washes in tissue culture medium and were finally resuspended at a concentration of 5×10^4 cells per ml.
Assays of human cytotoxic T-lymphocytes were done by known methods. Specifically, one-tenth ml aliquots of ^51 Cr-labelled target cell suspension were added to "half area" microtest plates and were incubated at 37° C. for 18 hours in a humidified atmosphere of 5% CO2 in air to permit the cells to adhere and spread on the floor of each well. Culture medium was then aspirated from each well and was replaced with 0.1 ml of tissue culture medium containing cells harvested from mixed leukocyte-tumor cultures which had been processed as described for murine mixed leukocute cultures, above. Control wells for measurement of spontaneous ^51 Cr release received medium without effector cells and wells for measurement of maximal releasable ^51 Cr received 0.1 ml of 2% sodium dodecyl sulfate in distilled water. After overnight incubation at 37° in a humidified atmosphere of 5% CO2 in air, 0.05 ml of cell-free supernatant was withdrawn from each well and the amount of released ^51 Cr was quantitated using a gamma spectrometer. The percentage of specific ^51 Cr release (CTL activity) and the percent inhibition of CTL activity were calculated with the same formulas used above for the murine CTL assay.
Tests conducted on human cytotoxic T-lymphocyte responses are reported as the mean±standard error of the mean from triplicate ^51 Cr release determinations on pooled cells from duplicate control or test cultures.

[2] = tested on: IgM production by human lymphocytes; assay: Inhibition of IgM production by human lymphocytes in vitro (SAC activation, ELISA); conditions: 8 days, vehicle control 2.49 ± 0.17
Excerpt: (§1) General Test Description Humoral immunity comprises one of the two major arms of the immune system and generally is beneficial. However, a number of disease states are characterized by a hyperactive immune system responding to self tissue antigens. […] In these diseases it would be important to suppress the humoral immune system.
(§2) In the following studies we used established methods to examine the effect of Vitamin D derivatives on the in vitro production of immunoglobulin (Ig) by human peripheral blood leukocytes (PBL) following polyclonal activation. Immunoglobulin was induced from PBL by co-culturing the PBL with the polyclonal B cell activator Staphylococcus aureus strain Cowan I (SAC) for a period of 8 days. The quantity of Ig produced in the culture supernatants was determined by using an enzyme linked immunosorbent assay (ELISA). The effect of Vitamin D derivatives was determined by comparing the amount of antibody produced in cultures containing Vitamin D derivatives to those cultures containing an appropriate concentration of vehicle (ethanol).
(§3) Solutions of vitamin D derivatives. Stock solutions of vitamin D derivatives were prepared as described previously for the murine CTL experiments.
(§4) INDUCTION OF HUMAN IG SECRETION Human peripheral blood mononuclear leukocytes were prepared from one day old buffy coat preparations obtained from the American Red Cross (Lansing, MI). […] Twenty five ml of this preparation were overlayed onto 25 ml of Ficoll-Paque contained in a 50 ml polypropylene centrifuge tube. After centrifugation at 400×g at 15° C. for 40 min, the cells at the interface of the medium and Ficoll were removed and washed 3 times in 50 ml RPMI medium and centrifuged at 300×g for 10 minutes. After the final centrifugation,the cell pellet was suspended in RPMI medium containing 20% fetal bovine serum (FBS) and 80 μg/ml gentamicin. The number of viable cells was determined by trypan blue exclusion and were then suspended to 2.5×10^6 viable cells per ml in RPMI containing 20% FBS and gentamicin. Human PBL were induced to secrete Ig as follows. One hundred microliters of the PBL suspension and an additional 100 μl of a 1:20,000 (v/v) preparation of SAC suspended in RPMI containing 1% FBS were added to each well of a 96-well microtiter plate. Selected wells were also set up without the addition of SAC to serve as negative controls (spontaneous Ig secretion). Each well then received 20 μl of either the appropriate dilution of Vitamin D derivative in RPMI with 1% ethanol or RPMI with 1% ethanol (vehicle control). The vitamin D derivatives were tested at final concentrations of 10^-5, 10^-6, 10^-7, 10^-8, 10^-9, and 10^-10 M and in all cases the vehicle (ethanol) concentration was 0.1%. All treatments were performed in triplicate. […] The samples were then either assayed immediately or stored at -20° C. until assayed by the ELISA technique described below.
(§5) QUANTITATION OF SECRETED IG (ELISA ASSAY) ELISA plates were prepared for quantitating human IgG and IgM levels in culture supernatants as follows. Affinity purified sheep anti-human IgG and goat anti-human IgM (Cappel, Cochranville, PA) were diluted 1:250 and 1:400 respectively, in carbonate coating buffer (0.05M sodium bicarbonate, 0.05M sodium carbonate, 0.15M sodium chloride). One hundred and fifty microliters of the antibody preparation were added to each well of a 96 well ELISA plate (EIA, Costar). The plates were sealed and incubated overnight at 4° C. and on the following day were washed 3 times with distilled water. Each well then received 350 μl of Dulbecco's PBS containing 1 mg/ml bovine serum albumin (BSA) and 0.5 mg/ml sodium azide. The plates were allowed to incubate for 1 hour at 37° C. and then washed 3 times with Dulbecco's PBS containing 0.5% stock Tween 20 (PBS-Tween) followed by 2 washes with distilled water. The plates were air dried and stored desiccated under a vacuum at 4° C. until use.

[3] = tested on: IgG production by human lymphocytes; assay: Inhibition of IgG production by human lymphocytes in vitro (SAC activation, ELISA); conditions: 8 days, vehicle control 0.78 ± 0.09
Excerpt: as §1, §2, §3, §4, §5

With `C=C1/C(=C\C=C2/CCC[C@]3(C)[C@@H]([C@H](C)CC[C@@H](F)C(C)(C)O)CC[C@@H]23)C[C@@H](O)C[C@@H]1O` [24R-F--1α,25-(OH)2 --D3, 1α,25-Dihydroxy-24R-fluorocholecalciferol] the inhibition at 1 µM ([1]; Homo sapiens, T-lymphocyte, Test 1, 1 × 10^-6 molar, read-out: Inhibition of CTL activity (%)) was 87%, the inhibition at 0.1 µM ([1]; Homo sapiens, T-lymphocyte, Test 1, 1 × 10^-7 molar, read-out: Inhibition of CTL activity (%)) was 62% and the inhibition at 10 µM ([1]; Homo sapiens, T-lymphocyte, Test 2, 1 × 10^-5 molar, read-out: Inhibition of CTL activity (%)) was 94%. The inhibition at 1 µM ([1]; Homo sapiens, T-lymphocyte, Test 2, 1 × 10^-6 molar, read-out: Inhibition of CTL activity (%)) was 100%, the “CTL activity (% specific ^51 Cr release)” value ([1]; Test 1, 1 × 10^-6 molar) was 7 ± 6 % specific ^51 Cr release and the “CTL activity (% specific ^51 Cr release)” value ([1]; Test 1, 1 × 10^-7 molar) was 20 ± 1 % specific ^51 Cr release. For the same molecule, the “CTL activity (% specific ^51 Cr release)” value ([1]; Test 2, 1 × 10^-5 molar) was 3 ± 4 % specific ^51 Cr release, the “CTL activity (% specific ^51 Cr release)” value ([1]; Test 2, 1 × 10^-6 molar) was 0 ± 3 % specific ^51 Cr release and the “IgM μg per culture (x ± S.E.M.)” value ([2]; 1 × 10^-6 molar) was “undetectable”. For the same molecule, the “IgM μg per culture (x ± S.E.M.)” value ([2]; 1 × 10^-7 molar) was 0.12 ± 0.06 μg per culture, the “IgM μg per culture (x ± S.E.M.)” value ([2]; 1 × 10^-8 molar) was 1.23 ± 0.03 μg per culture and the “IgM μg per culture (x ± S.E.M.)” value ([2]; 1 × 10^-9 molar) was 3.13 ± 0.41 μg per culture. For the same molecule, the “IgM μg per culture (x ± S.E.M.)” value ([2]; 1 × 10^-10 molar) was 3.84 ± 0.72 μg per culture, the “IgG μg per culture (x ± S.E.M.)” value ([3]; 1 × 10^-6 molar) was “undetectable” and the “IgG μg per culture (x ± S.E.M.)” value ([3]; 1 × 10^-7 molar) was 0.01 ± 0.002 μg per culture. For the same molecule, the “IgG μg per culture (x ± S.E.M.)” value ([3]; 1 × 10^-8 molar) was 0.10 ± 0.02 μg per culture, the “IgG μg per culture (x ± S.E.M.)” value ([3]; 1 × 10^-9 molar) was 0.22 ± 0.05 μg per culture and the “IgG μg per culture (x ± S.E.M.)” value ([3]; 1 × 10^-10 molar) was 0.21 ± 0.06 μg per culture.
